Molecules are shown by their SMILES.

The text below walks through data of ChEMBL document CHEMBL1130827, “Molecular lipophilicity potential by CLIP, a reliable tool for the description of the 3D distribution of lipophilicity: application to 3-phenyloxazolidin-2-one, a prototype series of reversible MAOA inhibitors” (Bioorg Med Chem Lett, 1998).

Data set [1] is described as follows: Partition coefficient (logP). Format: physicochemical. The following applies: octanol/water.
Data set [2] has as its target T1, Amine oxidase [flavin-containing] A (Homo sapiens, UniProt P21397).
T1 sequence (P21397 whole entry): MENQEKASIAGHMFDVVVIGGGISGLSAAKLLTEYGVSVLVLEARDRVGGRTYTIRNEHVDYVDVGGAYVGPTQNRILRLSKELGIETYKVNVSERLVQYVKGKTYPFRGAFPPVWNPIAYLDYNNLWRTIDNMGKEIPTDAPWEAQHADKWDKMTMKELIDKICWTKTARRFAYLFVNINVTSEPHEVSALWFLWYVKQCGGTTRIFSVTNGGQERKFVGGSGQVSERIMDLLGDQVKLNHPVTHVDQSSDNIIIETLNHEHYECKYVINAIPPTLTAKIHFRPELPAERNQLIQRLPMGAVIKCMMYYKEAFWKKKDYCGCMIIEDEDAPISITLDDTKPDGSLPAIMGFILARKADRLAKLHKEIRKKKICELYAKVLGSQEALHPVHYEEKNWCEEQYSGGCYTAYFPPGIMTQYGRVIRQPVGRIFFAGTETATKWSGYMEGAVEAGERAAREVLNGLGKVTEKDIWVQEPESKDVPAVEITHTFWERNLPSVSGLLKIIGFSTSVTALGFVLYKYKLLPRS
In words: Monoamine oxidase A inhibitory potency. The following applies: read-out: KiA.

A short description of data set [3]: Logarithm of capacity factor was determined. The format is ADME.

In general, logP refers to a log measure of how a compound divides between an organic and an aqueous phase. Read a low logP as lower lipophilicity. As for `COC[C@H]1CN(c2ccc(OCC[C@@H](C)OC)cc2)C(=O)O1`, the logP in data set [1] stood at 2.7. For the same compound, in data set [2], the Ki came out at 170 nM. This compound also showed a Log kw in data set [3] of 2.21.

`COC[C@H]1CN(c2ccc(OCC(C)O)cc2)C(=O)O1` (stereo partly drawn) registered a logP in data set [1] of 1.17. Also, the Ki in data set [2] is 220 nM. In addition, the Log kw in data set [3] came to 1.17.

In turn, `COC[C@H]1CN(c2ccc(OCC[C@@H](O)C(F)(F)F)cc2)C(=O)O1` [BEFLOXATONE] yielded a lipophilicity (logP) in data set [1] of 2.48. Further, in data set [2], the Ki was determined as 3.5 nM. The same compound gave a Log kw in data set [3] of 2.45.

`COC[C@H]1CN(c2ccc(OCCO)cc2)C(=O)O1` showed a logP in data set [1] of 0.77. Besides, the Ki in data set [2] stood at 390 nM. Besides, the Log kw in data set [3] is reported as 1.

Regarding `COC[C@H]1CN(c2ccc(CCO)cc2)C(=O)O1`, in data set [1], the log partition coefficient (logP) amounted to 1.13. Moreover, the Ki in data set [2] was 80 nM. This compound also gave a Log kw in data set [3] of 1.

`COC[C@H]1CN(c2ccc(OCC[C@@H](C)O)cc2)C(=O)O1` had a logP in data set [1] of 1.71. Moreover, the Ki in data set [2] worked out at 6.5 nM. The Log kw in data set [3] is 1.6.

On to `COC[C@H]1CN(c2ccc(OCCC(C)=O)cc2)C(=O)O1`, for which the logP in data set [1] was determined as 1.37. For the same compound, the Ki in data set [2] was determined as 46 nM. In data set [3], this compound yielded a Log kw of 1.43.

`C=C(C)CCOc1ccc(N2C[C@H](COC)OC2=O)cc1`: the logP in data set [1] worked out at 3.03. Further, in data set [2], the Ki came out at 28 nM. The compound also gave a Log kw in data set [3] of 3.08.

Take `COC[C@H]1CN(c2ccc(OCCCC(C)O)cc2)C(=O)O1` (stereo partly drawn): the lipophilicity (logP) in data set [1] is 2.27. In addition, in data set [2], the Ki worked out at 13 nM. The same compound yielded a Log kw in data set [3] of 1.88.

As for `COC[C@H]1CN(c2ccc(CCCO)cc2)C(=O)O1`, in data set [1], the logP was found to be 1.27. For the same compound, in data set [2], the Ki came out at 1.6 nM. Further, the Log kw in data set [3] is 1.3.

Compound `COC[C@H]1CN(c2ccc(OCCCCO)cc2)C(=O)O1` displayed a logP in data set [1] of 1.84. Also, in data set [2], the Ki stood at 29 nM. The compound further showed a Log kw in data set [3] of 1.58.
